Laboratory results taken from publication PMC8316002, “Inhibition of Escherichia coli Lipoprotein Diacylglyceryl Transferase Is Insensitive to Resistance Caused by Deletion of Braun’s Lipoprotein” (Journal of Bacteriology, 2021).
In brackets after ≈: the same amount, converted by molar mass. Read-outs that look alike come from different tables or passages of the source. Where a SMILES comes first, the peptide text is derived from it. Bridges are numbered along the chain shown (N, C = ends). [ ]: non-standard residue; d: D form. Bip = N[C@@H](Cc1ccc(-c2ccccc2)cc1)C(=O)O; NMeF = CN[C@@H](Cc1ccccc1)C(=O)O

Columns and labels:
[1] = test system: CFT073 imp4213 Δlpp; test: Time-kill, CFT073 imp4213 versus CFT073 imp4213 Δlpp; type: cell-based, E. coli; settings: 12.5 μM G2824, 3.2 μM globomycin or 1.6 μM vancomycin, CFU, two independent experiments in triplicates
Protocol: To compare the rate of bactericidal killing of G2824 with that of globomycin, we treated CFT073 imp4213 and CFT073 imp4213 Δlpp cells with G2824 and globomycin at 2× MIC of the respective inhibitors against CFT073 imp4213 and enumerated viable CFU counts.
Unless stated otherwise, E. coli cells were grown in Luria-Bertani (LB) medium (0.5% yeast extract, 1% tryptone, 0.5% NaCl) at 37°C. Where indicated, kanamycin (Kan) was added to culture media at a 50-μg/ml final concentration. MIC assays were performed based on Clinical and Laboratory Standards Institute (CLSI) guidelines. […] Growth of MG1655 inducible deletion strains was measured by culturing in the presence of 2-fold dilutions of arabinose (starting arabinose concentrations for CFT073 and MG1655 inducible deletion strains were 4% and 0.8%, respectively). While 2% arabinose was sufficient for WT growth of MG1655 Δlgt, 4% arabinose was used for CFT073 Δlgt based on comparing its growth to that of WT CFT073 as measured by CFU. OD600 growth measurements were performed using an EnVision 2101 multilabel reader plate reader (PerkinElmer) linked with Echo liquid handler (Labcyte). […] Bacterial viability at different time points during the treatment was measured by enumerating CFU. […]

[2] = test system: CFT073 imp4213; test: microbe, parasite or virus in culture; type: cell-based, E. coli; settings: average of at least four independent experiments in duplicates
Protocol: (§1) Unless stated otherwise, E. coli cells were grown in Luria-Bertani (LB) medium (0.5% yeast extract, 1% tryptone, 0.5% NaCl) at 37°C. Where indicated, kanamycin (Kan) was added to culture media at a 50-μg/ml final concentration. MIC assays were performed based on Clinical and Laboratory Standards Institute (CLSI) guidelines. For in vitro growth curves, overnight cultures of WT CFT073, CFT073 Δlgt, and CFT073 Δlgt complemented with lgt from E. coli (lgt^Ec) or P. aeruginosa (lgt^Pa) were grown to mid-exponential phase (optical density at 600 nm [OD600] of 0.6) and then diluted to an OD600 of 0.1 to initiate growth curves. At various times, culture aliquots were diluted and plated in dilutions on LB+Kan agar, and CFU were enumerated in duplicates. Growth of MG1655 inducible deletion strains was measured by culturing in the presence of 2-fold dilutions of arabinose (starting arabinose concentrations for CFT073 and MG1655 inducible deletion strains were 4% and 0.8%, respectively). While […] was sufficient for WT growth of MG1655 Δlgt, 4% arabinose was used for CFT073 Δlgt based on comparing its growth to that of WT CFT073 as measured by CFU. OD600 growth measurements were performed using an EnVision 2101 multilabel reader plate reader (PerkinElmer) linked with Echo liquid handler (Labcyte). For time-kill experiments, bacteria were harvested in mid-exponential phase and treated with 12.5 μM G2824, 3.2 μM globomycin, and 1.6 μM vancomycin. CFU were enumerated at various times posttreatment. Bacterial culture medium containing 2% arabinose was used to induce lpp or lppΔK expression from pBad24 plasmids. Bacterial viability at different time points during the treatment was measured by enumerating CFU. Serum killing assays were carried out as previously described ([17]).

[3] = test system: MG1655 Δlpp; test: microbe, parasite or virus in culture; type: cell-based, E. coli
Protocol: as §1

[4] = test system: CFT073 + EDTA; test: microbe, parasite or virus in culture; type: cell-based, E. coli; settings: average of at least four independent experiments in duplicates
Protocol: as §1

[5] = test system: CFT073; test: microbe, parasite or virus in culture; type: cell-based, E. coli; settings: average of at least four independent experiments in duplicates
Protocol: as §1

[6] = test system: MG1655 + EDTA; test: microbe, parasite or virus in culture; type: cell-based, E. coli; settings: average of at least four independent experiments in duplicates
Protocol: as §1

[7] = test system: CFT073 imp4213 Δlpp; test: microbe, parasite or virus in culture; type: cell-based, E. coli
Protocol: as §1

[8] = test system: MG1655; test: microbe, parasite or virus in culture; type: cell-based, E. coli; settings: average of at least four independent experiments in duplicates
Protocol: as §1

[9] = test system: MG1655 Δlpp + EDTA; test: microbe, parasite or virus in culture; type: cell-based, E. coli
Protocol: as §1

[10] = test system: CFT073 Δlpp; test: microbe, parasite or virus in culture; type: cell-based, E. coli
Protocol: as §1

[11] = test system: CFT073 Δlpp + EDTA; test: microbe, parasite or virus in culture; type: cell-based, E. coli
Protocol: as §1

[12] = test system: MG1655 imp4213; test: Sucrose gradient centrifugation, IM and OM separation; type: cell-based, E. coli; settings: 1× MIC, 60 min
Protocol: Bacterial inner and outer membranes were separated by isopycnic sucrose gradient centrifugation as described previously ([75]) and by the Hancock Laboratory (http://cmdr.ubc.ca/bobh/method/outer-membrane-preparation-one-step-sucrose-gradient-procedure/), with some modifications. Briefly, bacteria were grown in Luria broth at 37°C to mid-exponential phase (OD600 of 0.8 to 0.9) and then treated with 1× MIC of designated inhibitors for 1 h. Cells representing equivalents of an OD600 of 10 were harvested by centrifugation at 4,000 × g for 15 min, washed once, and resuspended in cold 10 mM Tris, pH 8.0, containing 20% (wt/vol) sucrose, cOmplete EDTA-free protease inhibitor cocktail (Roche), and 1,000 U/ml nuclease (Benzonase nuclease; EMD Millipore). The cell suspension was disrupted by two passages through an LV1 Microfluidizer (Microfluidics). Unbroken cells were removed by centrifugation at 4,000 × g, and membranes were collected by ultracentrifugation at 100,000 × g for 1 h and washed once with cold 10 mM Tris, pH 8.0. The final membrane preparation was resuspended in 10 mM Tris, pH 8.0, containing 10% sucrose, cOmplete EDTA-free protease inhibitor cocktail (Roche), and 1,000 U/ml nuclease and then applied to the top of the sucrose gradients (73%, 60%, and 20%). The loaded gradients were spun at 39,000 rpm for 22 h at 4°C in a Beckman SW 41 Ti rotor. Fractions were collected from the top and analyzed by SDS-PAGE and immunoblotting with appropriate antibodies.

[13] = target: T1, E. coli Lgt (Escherichia coli, UniProt P60955); test: biochemical; settings: 3 nM Lgt-DDM, 50 μM phosphatidylglycerol, 12.5 μM Pal-IAAC, 50 mM Tris (pH 8), 0.02% DDM, 60 min at RT; luminescence; at least two independent experiments in triplicates; read-out: IC50, inhibition of Lgt biochemical activity
T1 construct: DNA encoding full-length E. coli Lgt fused to a C-terminal Flag tag; Flag (C); made in house; host or cells: E. coli Rosetta 2(DE3) Gold cells (Agilent)
T1 sequence (P60955 whole entry, the tested form may be a part): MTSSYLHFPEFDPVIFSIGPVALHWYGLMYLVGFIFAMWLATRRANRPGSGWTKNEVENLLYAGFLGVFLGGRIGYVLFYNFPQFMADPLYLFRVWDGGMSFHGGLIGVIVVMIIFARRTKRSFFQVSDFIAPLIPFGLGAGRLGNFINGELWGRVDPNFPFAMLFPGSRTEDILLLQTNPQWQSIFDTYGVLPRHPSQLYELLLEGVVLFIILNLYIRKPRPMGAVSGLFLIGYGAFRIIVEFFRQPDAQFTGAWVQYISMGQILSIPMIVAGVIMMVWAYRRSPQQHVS

[14] = Escherichia coli, read-out: MIC
[15] = MG1655 Δlpp, average of at least four independent experiments in duplicates
[16] = CFT073 imp4213 Δlpp, average of at least four independent experiments in duplicates
[17] = MG1655 Δlpp + EDTA, average of at least four independent experiments in duplicates
[18] = CFT073 Δlpp, average of at least four independent experiments in duplicates
[19] = CFT073 Δlpp + EDTA, average of at least four independent experiments in duplicates

SMILES	effect of lpp deletion on bactericidal killing [1]	MIC [2]	MIC [3, 15]	MIC [4]	MIC ([5]; read-out: MIC)	MIC [6]	MIC [7, 16]	MIC ([8]; read-out: MIC)	MIC [9, 17]	MIC [10, 18]	MIC [11, 19]	IC50 [13]	MIC [5]	MIC [8]	further results
CN[C@H](CC(C)C)C(=O)N[C@H]1C(=O)N[C@@H](CC(N)=O)C(=O)N[C@H]2C(=O)N[C@H]3C(=O)N[C@H](C(=O)N[C@H](C(=O)O)c4cc(O)cc(O)c4-c4cc3ccc4O)[C@H](O)c3ccc(c(Cl)c3)Oc3cc2cc(c3O[C@@H]2O[C@H](CO)[C@@H](O)[C@H](O)[C@H]2O[C@H]2C[C@](C)(N)[C@H](O)[C@H](C)O2)Oc2ccc(cc2Cl)[C@H]1O [Vancomycin]	equivalent killing of CFT073 imp4213 and CFT073 imp4213 Δlpp at 5 h posttreatment														MIC ([2]; Escherichia coli): 0.6 µM (≈ 0.87 µg/mL); MIC ([3]; Escherichia coli, MG1655): > 100 µM; MIC ([4]; Escherichia coli): 0.8 µM (≈ 1.16 µg/mL); MIC [5, 14]: > 100 µM; MIC ([6]; Escherichia coli): 3.1 µM (≈ 4.49 µg/mL); MIC ([7]; Escherichia coli): 0.7 µM (≈ 1.01 µg/mL); MIC [8, 14]: > 100 µM; MIC ([9]; Escherichia coli, MG1655): 0.8 µM (≈ 1.16 µg/mL); MIC ([10]; Escherichia coli): > 100 µM; MIC ([11]; Escherichia coli): 0.8 µM (≈ 1.16 µg/mL)
CCCCCC[C@H]1OC(=O)CNC(=O)[C@H]([C@H](C)O)NC(=O)[C@H](CO)NC(=O)[C@H]([C@H](C)CC)NC(=O)[C@H](CC(C)C)N(C)C(=O)[C@@H]1C [Globomycin]	lost in the absence of lpp	0.5 µM (≈ 0.328 µg/mL)	50 µM (≈ 32.8 µg/mL)	1.1 µM (≈ 0.721 µg/mL)	29.2 µM (≈ 19.2 µg/mL)	0.8 µM (≈ 0.525 µg/mL)	11.5 µM (≈ 7.54 µg/mL)	25 µM (≈ 16.4 µg/mL)	12.5 µM	>100 µM	4.7 µM				IM accumulation of OM lipoproteins and OMPs [12]: IM accumulation of OM lipoproteins (Pal and BamB) and OMPs (BamA and OmpA); IM accumulation of PGN-linked Lpp [12]: significant IM accumulation of PGN-linked Lpp, including DGPLP; localization of OmpA [12]: mislocalization of the β-barrel protein, OmpA; IM total protein and OM density ([12]; versus untreated): increases in total protein levels in the IM fraction and a decrease in OM density; effect of lpp deletion on growth inhibition, MG1655, in words ([3]; MG1655 Δlpp versus WT): resistant; effect of lpp deletion on growth inhibition, CFT073, in words ([10]; CFT073 Δlpp versus WT): resistant
CN1C(=O)[C@H](Cc2ccc(-c3ccccc3)cc2)NC(=O)CNC(=O)[C@H](CC(=O)O)NC(=O)[C@@H](Cc2ccccc2)NC(=O)CSC[C@@H](C(=O)NCC(=O)N[C@@H](CCCCN)C(=O)N[C@@H](CCCCN)C(N)=O)NC(=O)[C@H](CCCNC(=N)N)NC(=O)[C@H](CO)NC(=O)[C@H](Cc2ccc(-c3ccccc3)cc2)NC(=O)[C@@H]1Cc1ccccc1 [G2824] ({CH2CO}-[dF]DG[Bip][NMeF][Bip]SRCGKK-NH2; thioether N-9)		8.4 µM (≈ 13.8 µg/mL)	62.5 µM (≈ 103 µg/mL)	3.1 µM (≈ 5.1 µg/mL)	92 µM (≈ 151 µg/mL)	3.1 µM (≈ 5.1 µg/mL)	8.9 µM (≈ 14.6 µg/mL)	93.8 µM (≈ 154 µg/mL)	3.1 µM	62.5 µM (≈ 103 µg/mL)	2.3 µM	180 nM	~100 µM (≈ 164 µg/mL)	~100 µM (≈ 164 µg/mL)	
CN1C(=O)[C@H](Cc2ccc(-c3ccccc3)cc2)NC(=O)CNC(=O)[C@H](CCCNC(=N)N)NC(=O)[C@@H](Cc2ccccc2)NC(=O)CSC[C@@H](C(=O)NCC(N)=O)NC(=O)[C@H](CCCNC(=N)N)NC(=O)[C@H](CO)NC(=O)[C@H](Cc2ccc(-c3ccccc3)cc2)NC(=O)[C@@H]1Cc1ccccc1 [G9066] ({CH2CO}-[dF]RG[Bip][NMeF][Bip]SRCG-NH2; thioether N-9)		5.7 µM (≈ 8.14 µg/mL)	31.3 µM (≈ 44.7 µg/mL)	3.1 µM (≈ 4.43 µg/mL)		3.1 µM (≈ 4.43 µg/mL)	6.8 µM (≈ 9.72 µg/mL)	>100 µM	3.1 µM	31.3 µM (≈ 44.7 µg/mL)	1.6 µM	240 nM	~100 µM (≈ 143 µg/mL)	~100 µM (≈ 143 µg/mL)	
